Reference: PubChem BioAssay AID540268 (Broad Institute, 2011)
Several values for one entry are separate records, joined by “and”; a condition that tells them apart may be missing. Equal values may be shown once. Activity calls are given as the source filed them. How the calls were made is not given here.

Assay: growth inhibition of yeast carrying parasite Hsp90, dose response, anti-malarial Hsp90 inhibitor project, ATP luminescence, 48 h, cherry-picked samples (AID 540268);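 on activity change, negative = inhibition: 0% = neutral control wells and -100% = positive control wells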
Conditions: yeast expressing the parasite Hsp90, ATP luminescence

Row | SMILES | AC50
1 | COc1cccc2c1C(=O)c1c(O)c3c(c(O)c1C2=O)CC(O)(C(C)=O)CC3OC1CC(N(C)C)C(O)C(C)O1 (centres undefined) | 1.58 µM
2 | CCCCCCCCCCCCCCCC[N+](C)(C)CCN(Cc1ccc(OC)cc1)c1ncccn1 | 4.14 µM
3 | COc1ccc(-c2nn(-c3ccccc3)cc2C(=O)N2CCN(S(=O)(=O)c3cccc(F)c3)CC2)cc1 | 1.15 µM
4 | O=C(/C=C/c1ccccc1)c1cc(Br)ccc(=O)c1O | 1.51 µM
5 | O=C(NN1C(=O)/C(=C/c2ccc(O)c([N+](=O)[O-])c2)SC1=S)c1ccccc1Cl | 4.13 µM
6 | COc1ccc(OC)c(NC(=O)c2nc(S(=O)(=O)Cc3ccccc3)ncc2Cl)c1 | 4.3 µM
7 | O=C(/C=C/c1ccnc2ccccc12)c1cccs1 | 4.64 µM
8 | Cc1ccc2c(c1)C(=O)C(=O)N2Cc1ccc(C(F)(F)F)cc1 | 7.78 µM
9 | Cc1[nH]c2ccc(C(=O)N3CCN(c4cccc(Cl)c4)CC3)cc2c1C | 8.89 µM
10 | COc1ccc(N(C(=O)c2ccncc2)S(=O)(=O)c2ccc(Cl)cc2)cc1 | 0.562 µM
11 | Clc1ccc(N=c2ssnc2Cl)cc1 | 2.69 µM
12 | Cc1ccc(O)c(-c2cc(-c3cccc(Br)c3)n[nH]2)c1 | 4.38 µM
13 | Cc1ccc(OCC(=O)NNC(=S)NC(=O)C2CC2)c(C)c1 | 4.16 µM
14 | CC(=O)N(C1=C(Cl)C(=O)c2ccccc2C1=O)C1CCCCC1 | < 0.195 µM
15 | CC1(C(=O)c2ccccc2)C2c3c(ccc4ccccc34)OC(=O)C21C(=O)N1CCOCC1 (centres undefined) | 4.16 µM
16 | O=C(NN1C(=O)/C(=C\c2ccc(O)c([N+](=O)[O-])c2)SC1=S)c1ccccc1Cl | 5.92 µM
17 | Cc1cc(-c2cc(-c3ccc(Cl)cc3)nc(N)c2C#N)co1 | 5.34 µM
18 | COc1ccc2c3c(ccc2c1)C(=O)/C(=C/O)CC3 | 4.29 µM
19 | CN1CCN(C(c2ccc(Br)cc2)c2cc(Cl)c3cccnc3c2O)CC1 (centres undefined) | 0.535 µM
20 | OC(CNCCC1C=Nc2ccccc21)Cn1c2ccc(Cl)cc2c2cc(Cl)ccc21 (centres undefined) | 7.56 µM
21 | O=C1CC(c2ccccc2)CC(O)=C1C=Nc1cccc(Cl)c1 (centres undefined) | 3.26 µM
22 | Cc1cccc(NC(=S)NCC23C=CC(O2)C2C(=O)N(c4ccc(Cl)cc4)C(=O)C23)c1 (centres undefined) | 8.4 µM

Row | SMILES | AC50
23 | Cc1[nH]oc(=O)c1N=Nc1c(Cl)cccc1Cl | 24.9 µM
24 | O=C1C=CC(=O)N1CCCCCCCCCCN1C(=O)C=CC1=O | 0.837 µM
25 | COc1ccccc1NC(=O)COC(=O)c1ccc([N+](=O)[O-])s1 | 3.02 µM
26 | Cc1ccc(C(=O)C(SC(C)(C)C)n2cncn2)cc1 (centres undefined) | 4.25 µM
27 | CCCCCCCCCCCCCCCC[n+]1cccc(C(=O)N(CC)CC)c1 | 2.89 µM and 8.12 µM
28 | CCCC(=O)NC(c1ccc(OC)c(OC)c1)c1cc(Cl)c2cccnc2c1O (centres undefined) | 6.12 µM
29 | Cc1cc(C)cc(N=Cc2ccc([N+](=O)[O-])s2)c1 | 3.94 µM
30 | Cc1ccc(S(=O)(=O)N(C(=O)c2ccncc2)c2ccc(OC(=O)c3ccncc3)cc2)cc1 | 0.863 µM
31 | COCCOC(=O)/C(=C/c1ccc(OC(=O)c2ccccc2)cc1)C(C)=O | 2.68 µM
32 | Cc1ccc(NC(=O)c2cc(N3C(=O)C=CC3=O)ccc2N2CCOCC2)cc1 | 0.605 µM
33 | Cc1c(C(=O)N(Cc2ccccc2)Cc2cccs2)cnn1-c1ccc(Cl)cc1 | 5.05 µM
34 | CCCCCCCCCCOC(=O)Cn1c(COc2ccc(Cl)cc2)[n+](C)c2ccccc21 | 4.25 µM
35 | CC1=CC(=O)C(C(C)C)=C/C1=N/OS(=O)(=O)c1ccccc1 | 3.09 µM
36 | O=c1cc(-c2ccccc2)cc(-c2ccccc2)n1O | 1.17 µM
37 | Cc1cc(C)c(S(=O)(=O)N2CCC(C(=O)NCc3ccc(Cl)cc3Cl)CC2)c(C)c1 | 0.835 µM
38 | CCN1/C(=C/c2ccc3cc(C)cc(C)c3[n+]2CC)Sc2cc(C)ccc21 | 2.91 µM
39 | O=C1OCC(CO)(CO)N=C1NNc1ccc(Cl)c(Cl)c1 | 2.2 µM
40 | CCOc1ccc(N2C(=O)/C(=C\c3ccccc3OC)S(=O)(=O)C2c2cccc([N+](=O)[O-])c2)cc1 (centres undefined) | 21.6 µM
41 | O=C1/C(=C/c2ccncc2)CCC/C1=C\c1ccncc1 | 4.25 µM
42 | Cc1cccc(N=Nc2ccc(O)c3ncccc23)c1 | 2.25 µM
43 | OCCOCCn1c(C2CCCN2c2nc(-c3ccc(F)cc3)cs2)nc2cc(C(F)(F)F)ccc21 (centres undefined) | 7.92 µM
44 | Cc1ccc(/C=[N+](\[O-])c2ccc(N(C)C)cc2)c2nsnc12 | 8.1 µM

Row | SMILES | AC50
45 | O=C(/C=C/c1ccccc1)CCN1CCCCC1 | 4.02 µM
46 | CC(=O)Nc1ccc2c(c1)Cc1cc(N3C(=O)C=CC3=O)ccc1-2 | 0.654 µM
47 | Cc1cccc(Nc2nc(N)c([N+](=O)[O-])c(N3CC(C)CC(C)C3)n2)c1 (centres undefined) | 3.22 µM
48 | O=C(OCn1ncc(Br)c(Br)c1=O)c1ccccc1Cl | 4.29 µM
49 | CC(C)OC(=O)c1ccc(NCc2cc(O)ccc2O)cc1 | 6.94 µM
50 | CCOc1ccc(C(Nc2cccnc2)c2cc(Cl)c3cccnc3c2O)cc1 (centres undefined) | 1.5 µM
51 | Cc1ccc(NC(=O)c2ccc(Cl)c(N3C(=O)C=CC3=O)c2)cc1 | 2.38 µM
52 | CC(C)(C)SCCNC(=O)c1ccc(Cl)c([N+](=O)[O-])c1 | 4.37 µM
53 | O=[N+]([O-])c1ccc(N=Nc2c(Cl)cc(O)cc2Cl)cc1 | 0.401 µM
54 | F[B-](F)(F)c1cc2cc(Br)ccc2s1 | 6.2 µM
55 | c1ccc(-c2ccc(C(c3ccccc3)n3ccnc3)cc2)cc1 (centres undefined) | 1.07 µM
56 | CCN(CC)c1ccc(C(=C2C=CC(=[N+](CC)CC)C=C2)c2ccccc2)cc1 | 1.09 µM
57 | COc1cccc(/C=C2/CCC(CN(C)C)C2=O)c1 (centres undefined) | 7.93 µM
58 | Cc1nnc(C)n1/N=C/c1cc(Br)cc(Br)c1O | 4.35 µM
59 | Cn1c(O)c(C(=Nc2ccc(F)cc2)c2ccccc2Cl)c(=O)n(C)c1=O | 2.28 µM
60 | CC(=O)SC(C[N+](=O)[O-])c1cn(C(C)=O)c2ccccc12 (centres undefined) | 1.57 µM
61 | CC1=CN2C(=N)/C(=C/c3ccc([N+](=O)[O-])o3)C(=O)N=C2S1 | 1.34 µM
62 | CCOc1ccc(NCc2cc3c(C(C)(C)C)nn(-c4ccccc4)c3[nH]c2=O)cc1 | 18.1 µM
63 | O=C(NNC1=C(C(=O)C(F)(F)F)CCC1)c1ccc(Cl)cc1 | 1.34 µM
64 | O=C(/C=C/c1cc(Br)ccc1O)c1ccco1 | 5.35 µM
65 | On1ccccc1=S | < 0.195 µM
66 | C/C(=N\NC(=O)c1cc2ccccc2cc1O)c1ccccn1 | 8.31 µM

Row | SMILES | AC50
67 | COc1cc(OC)cc(N2C(=O)CC(N3CCC(C(=O)N4CCCCC4)CC3)C2=O)c1 (centres undefined) | 8.21 µM
68 | Cc1nn(-c2nc3ccccc3[nH]2)c(=O)c2ccccc12 | 1.84 µM
69 | COc1ccc(Cl)cc1C(Nc1cccnc1)c1ccc2cccnc2c1O (centres undefined) | 1.35 µM
70 | CC(NNC(=S)N1CCN(c2ccccn2)CC1)c1nccc2ccccc12 (centres undefined) | 2.74 µM
71 | Cc1ccc(N=Cc2c(C)[nH]n(-c3nc4ccccc4[nH]3)c2=O)cc1 | 2.4 µM
72 | CC1CC(C)C(=NNC(N)=O)C(C(O)CC2CCC(=O)NC2=O)C1 (centres undefined) | < 0.195 µM
73 | CCOC(=O)c1ccc(N2C(=O)CC(N3CCC(C(=O)OCC)CC3)C2=O)cc1 (centres undefined) | < 0.195 µM
74 | c1ccc(C(=NNc2nc3ccccc3s2)c2ccccn2)cc1 | 22.3 µM
75 | O=C(O)c1ccccc1NC(c1ccccc1)c1ccc2cccnc2c1O (centres undefined) | 4.87 µM
76 | O=C(C#Cc1ccccc1)c1ccco1 | 1.95 µM
77 | COc1ccc(-c2sc3ccccc3c2/C=C/c2ccncc2)cc1 | 4.84 µM
78 | Oc1ccc2ccccc2c1N=Nc1nccs1 | 0.63 µM
79 | CC(C)CC(=O)/C(=C\c1ccc(Cl)cc1Cl)n1cncn1 | 1.75 µM
80 | O=C(CCCNC(=O)c1ccc(Cl)cc1)OCc1cccc(Br)c1 | 4.54 µM
81 | C/C(=N\Nc1ncc(Cl)cc1Cl)c1ccccn1 | 1.8 µM
82 | O=C(Nc1nc(-c2ccccc2)cs1)c1ccccc1NS(=O)(=O)c1ccc(F)cc1 | 4.09 µM
83 | CCCCCC(=O)N(O)C1CC(=O)N(c2ccccc2)C1=O (centres undefined) | 1.13 µM
84 | O=C(C=Cc1ccccn1)c1ccccc1O | 3 µM
85 | Cc1cc(N2CCN(C(=O)c3ccco3)CC2)n2nc(C)c(-c3ccccc3)c2n1 | 8.36 µM
86 | CCC(=O)NC(c1ccc(C)cc1)c1ccc2cccnc2c1O (centres undefined) | 3.48 µM
87 | Cc1ccc(C)c(/C=C/C(=O)c2ccccc(=O)c2O)c1 | 2.19 µM
88 | CCCCC(=O)NC(c1ccc(Cl)cc1)c1ccc2cccnc2c1O (centres undefined) | 16.4 µM

Row | SMILES | AC50
89 | N#C/C(=C\c1cccc(Oc2ccccc2)c1)C(=O)N1CCOCC1 | 8.86 µM
90 | CC1=NOC(=O)/C1=C/c1ccc(-c2ccc(Cl)cc2)o1 | 2.43 µM
91 | COc1ccc(/C=C2/CCC(CN3CCOCC3)C2=O)cc1 (centres undefined) | 0.751 µM
92 | O=C(Nc1cc(Cl)ccc1-n1cncn1)c1ccc([N+](=O)[O-])s1 | 4.2 µM
93 | Oc1cc(OCc2ccccc2)ccc1-c1[nH]ncc1-c1ccccc1 | 9.04 µM
94 | O=[N+]([O-])c1ccc(C=Nc2cccc3ccccc23)s1 | 8.33 µM
95 | C=CCc1c(C)c(C#N)c2nc3ccccc3n2c1NCCN(C)C | 4.58 µM
96 | CCCCCCCCCCCCn1ccc(=N)cc1 | 7.7 µM
97 | CSc1ccccc1OCc1cc(C(=O)N2CCN(C)C(c3ccccc3)C2)no1 (centres undefined) | 2.25 µM
98 | COc1ccc2c(c1)CCc1c(C(=O)N3CCc4ccccc4C3)noc1-2 | 4.5 µM
99 | O=c1c2c3c(sc2ncn1/N=C/c1ccc([N+](=O)[O-])o1)CCCC3 | 2.66 µM
100 | N#C/C(=C\c1cccc([N+](=O)[O-])c1)C(=O)NCc1ccc(Cl)cc1 | 6.75 µM
101 | O=C(C#Cc1cccc([N+](=O)[O-])c1)c1ccccc1 | 0.36 µM
102 | O=C(Nc1ccccc1Cl)/C(Cl)=C(\Cl)S(=O)c1ccccc1 (centres undefined) | 0.718 µM
103 | Cc1sc2nc(C3CC3)nc(SCC(=O)NCc3ccco3)c2c1C | 7.33 µM
104 | Cc1c(N=Cc2cc(Br)cc(Br)c2O)cccc1C(=O)O | 3.06 µM
105 | CCCC(=O)NC(c1ccc(Cl)cc1)c1ccc2cccnc2c1O (centres undefined) | 7.47 µM
106 | CCOc1ccccc1-c1c2cc(O)c(=O)cc-2oc2cc(O)c(O)cc12 | 4.21 µM
107 | CCn1c(CNc2ccc(Cl)cc2)nnc1SCc1ccc(Cl)cc1 | 4.37 µM
108 | CCCCCCCCCCCCCCCC(=O)OC(CC(=O)O)C[N+](C)(C)C (centres undefined) | 1.23 µM
109 | O=C1/C(=C\c2ccc([N+](=O)[O-])cc2)CS(=O)(=O)C/C1=C/c1ccc([N+](=O)[O-])cc1 | 0.337 µM
110 | CC1=CC2C(C(O)CC3(C)C2CC(C)C32OCOC23COCO3)C2(C)C/C(=C\O)C(=O)C=C12 (centres undefined) | 3.13 µM

Same assay, conditions: yeast expressing the parasite Hsp90, ATP luminescence, at 26 µM (top of the series)

Row | SMILES | activity change, negative = inhibition
111 | COc1cc(N=c2ssnc2Cl)c(OC)cc1Cl | -119% (inactive)
112 | CC1Oc2cc3oc4c(O)c(O)ccc4c(=O)c3c(O)c2C1(C)C (centres undefined) | -0.538% (inactive)
113 | CC1(C)N=C(SCC(=O)Nc2ccc(Cl)cc2Cl)C(c2ccccc2)=N1 | 20.1% (inactive)
114 | COc1ccc(NC(=S)Nc2ccc3snnc3c2)cc1 | -20.2% (inactive)
